Results published in patent US20150374844A1, “NOVEL PH -SWITCHABLE PEPTIDES FOR MEMBRANE INSERTION AND PORE FORMATION” (UNIVERSITY OF PENNSYLVANIA, priority 2013, published 2015).
No end group written: not given here.

Key:
[1] = system: Red Blood Cells (RBCs); test: Human red blood cell hemolysis assay (hemoglobin release)
Protocol: Human Red Blood hemolysis assay was carried out as described below.
About 5 ml human blood from healthy individuals were transferred into a 50 ml centrifuge tube and either re-suspended in 35 ml buffer pH 5.4 (150 mM NaCl, 20 mM MES) or pH 7.5 (150 mM NaCl, 20 mM Hepes). Red Blood Cells (RBCs) were washed 3 times with the appropriate buffer and finally re-suspended in a total of 50 ml buffer (pH 5.4 or 7.5). For the assay 175 μl of buffer solution (pH 5.4 or 7.5) was added into each well of a clear-bottom 96-well plate followed by 50 μl of re-suspended RBCs (approx. 2.5×10^7 cells) in the appropriate buffer (for RBC transfer wide bore pipet tips were used to avoid cell damage). Test PSPF peptides (New England Peptide TM) at the appropriate concentration were diluted in 25 μl PBS and then added to the cells. All steps were done with chilled buffers and on ice. The suspension was then mixed 6-8 times by pipetting with wide bore tips, the plate was covered and incubated at 37° C. for indicated time.
After incubation the cells were centrifuged for 5 min at 500×g and 150 μl of the supernatant was transferred into a new 96-well clear-bottom plate. Absorbance at 541 nm was measured and hemolysis was normalized to RBCs which have been incubated in the presence of 1% Triton X-100 (100% hemolysis).
Red blood cell (RBC) lysis assays was used to screen the functional efficacy of the PSPF peptides upon delivery (Table 5). The release of ATP, miRNA and hemoglobin has been studied at both pH 7.5 and 5.4.
A desirable peptide should also negate membrane disruption, as assessed by leakage of proteins such as hemoglobin at both pH values. Therefore the peptides were first screened for hemolytic activity at both pH 7.5 and pH 5.4.

[2] = siRNA co-transfection assay, cell viability; format: cell-based; parameters: concentration or dose not given beside the values; conditions: co-transfection of peptide and siRNA
Source text: The protocol and siRNA reagent (target SSB gene) described in the following publication was followed: Bartz R, Fan H, Zhang J, Innocent N, Cherrin C, Beck S C, Pei Y, Momose A, Jadhav V, Tellers D M, Meng F, Crocker L S, Sepp-Lorenzino L, Barnett S F. Effective siRNA delivery and target mRNA degradation using an amphipathic peptide to facilitate pH-dependent endosomal escape. Biochem J. 2011; 435:475-87.

[3] = target: the molecule itself; test: CD thermal denaturation of the hexamer, Gibbs-Helmholtz fit, pH 5.5
Protocol: (§1) Furthermore, thermal denaturation by circular dichroism (CD) was used to study the thermal stability of the PSPF-EKG hexamer at multiple concentrations (2 μM, 4 μM and 20 μM), and at both pH 7.4 (FIG. 8A) and pH 5.5 (FIG. 8B). For each pH, to the curves were analyzed according to the Gibbs-Helmholtz Equation, using global least squares fitting of ΔHm, Tm and baselines. Tm was chosen as a global parameter defined with a reference concentration of 4 μM. ΔCp was also included, but over the range of experimental data examed, this parameter was not well defined.

[4] = target: the molecule itself; test: size exclusion chromatography, self-association, pH 7.4 (Table 7 prints 6.6)
Protocol: Size exclusion chromatography (SEC) of 100 μM PSPF-EKG and 100 μM PSPF-DKG were measured by AKTA FPLC machine (GE) using a Superdex 75 column (GE) eluted at pH 7.4 (50 mM Tris, 150 mM NaCl) and pH 5.5 (50 mM MES, 150 mM NaCl) respectively, at 25° C. Four standards were used: blue dextran (2,000,000 g/mol), carbonic anhydrase (29,000 g/mol), cytochrome C (12,400 g/mol) and aprotinin (6,500 g/mol). In order to test the effect of salt concentration upon peptide elution, the elutions of PSPF-EKG were also measured at pH 7.4 (50 mM Tris, 2M NaCl) and pH 5.5 (50 mM MES, […]), respectively.
Size exclusion chromatography—The association state of the PSPF peptide PSPF-EKG was initially investigated by size exclusion chromatography (SEC) using a Superdex 75 column (GE Healthcare) eluted at pH 7.4 (150 mM NaCl, 50 mM Tris) and pH 5.5 (150 mM NaCl, 50 mM MES) respectively. In addition, PSPF-DKG was also investigated to determine the effect of substituting Asp for Glu on the stability of the water-soluble bundle at each pH. To determine the approximate oligomerization states, four standards were used, shown by blue eluting peaks in FIG. 4: blue dextran (2,000,000 g/mol), carbonic anhydrase (29,000 g/mol), cytochrome C (12,400 g/mol) and aprotinin (6,500 g/mol).

[5] = target: the molecule itself; test: CD thermal denaturation of the hexamer, Gibbs-Helmholtz fit, pH 7.4
Protocol: as §1

[6] = pH 5.4, compared to triton-x-100
[7] = pH 7.5, compared to triton-x-100

Molecule	Hemoglobin Release [1, 6]	Hemoglobin Release [1, 7]	viability [2] [%]	Hemoglobin Release ([1]; pH 5.4)	Hemoglobin Release ([1]; pH 7.5)	[PSPF-EKG] at 50% fold and 300 K [3] [µM]	apparent molecular weight, fold of calculated molecular weight [4] [fold]	[PSPF-EKG] at 50% fold and 300 K [5] [µM]
WSDLAKALSDLAKALSDLAKALSDLAKA [PSPF-DKA, WSDLAKA LSDLAKA LSDLAKA LSDLAKA]	none	none	101	–	–	–	–	–
WSHLAQALSHLAQALSHLAQALSHLAQA [PSPF-HQA, WSHLAQA LSHLAQA LSHLAQA LSHLAQA]	–	–	105	none	none	–	–	–
WSHLAKGLSHLAKGLSHLAKGLSHLAKG [PSPF-HKG, WSHLAKG LSHLAKG LSHLAKG LSHLAKG]	–	–	102	none	none	–	–	–
WSDLAQALSDLAQALSDLAQALSDLAQA [PSPF-DQA, WSDLAQA LSDLAQA LSDLAQA LSDLAQA]	none	none	100	–	–	–	–	–
WSELAQALSELAQALSELAQALSELAQA [PSPF-EQA, WSELAQA LSELAQA LSELAQA LSELAQA]	–	–	103	none	none	–	–	–
WSELAKALSELAKALSELAKALSELAKA [PSPF-EKA, WSELAKA LSELAKA LSELAKA LSELAKA]	–	–	105	none	none	–	–	–
WSDLAKGLSDLAKGLSDLAKGLSDLAKG [PSPF-DKG, WSDLAKG LSDLAKG LSDLAKG LSDLAKG]	none	none	104	–	–	–	–	–
WSHLAKALSHLAKALSHLAKALSHLAKA [PSPF-HKA, WSHLAKA LSHLAKA LSHLAKA LSHLAKA]	–	–	97	none	none	–	–	–
WSELAQGLSELAQGLSELAQGLSELAQG [PSPF-EQG, WSELAQG LSELAQG LSELAQG LSELAQG]	–	–	105	none	none	–	–	–
WSDLAQGLSDLAQGLSDLAQGLSDLAQG [PSPF-DQG, WSDLAQG LSDLAQG LSDLAQG LSDLAQG]	none	none	98	–	–	–	–	–
WSHLAQGLSHLAQGLSHLAQGLSHLAQG [PSPF-HQG, WSHLAQG LSHLAQG LSHLAQG LSHLAQG]	–	–	104	none	none	–	–	–
WSELAKGLSELAKGLSELAKGLSELAKG [PSPF-EKG, WSELAKG LSELAKG LSELAKG LSELAKG]	–	–	102	–	–	–	–	–
WSELAKGLSELAKGLSELAKGLSELAKG [PSPF-EKG]	–	–	–	–	–	0.31	6.5	0.14
